Laboratory results reported in patent US7790884B2, “Acylaminopiperidine compound” (Astellas Pharma Inc., priority 2006, dated 2010).
pIC50: −log10 of the molar value. Structures can show the parent of a compound that is named as a salt.

What was measured:
[1] = molecular target: T1, human CCR4 (Homo sapiens, UniProt P51679); experiment: [35S]GTPγS binding test via CCR4 (human MDC-stimulated, human CCR4 expressing cell line membrane fraction); format: biochemical; conditions: membrane fraction of human CCR4 expressing B300-16 cells, room temperature 1 hour 30 minutes, read-out: inhibitory activity value (IC50)
T1 construct: expressed in transfected cells; membrane fraction used
T1 sequence (P51679 1-360): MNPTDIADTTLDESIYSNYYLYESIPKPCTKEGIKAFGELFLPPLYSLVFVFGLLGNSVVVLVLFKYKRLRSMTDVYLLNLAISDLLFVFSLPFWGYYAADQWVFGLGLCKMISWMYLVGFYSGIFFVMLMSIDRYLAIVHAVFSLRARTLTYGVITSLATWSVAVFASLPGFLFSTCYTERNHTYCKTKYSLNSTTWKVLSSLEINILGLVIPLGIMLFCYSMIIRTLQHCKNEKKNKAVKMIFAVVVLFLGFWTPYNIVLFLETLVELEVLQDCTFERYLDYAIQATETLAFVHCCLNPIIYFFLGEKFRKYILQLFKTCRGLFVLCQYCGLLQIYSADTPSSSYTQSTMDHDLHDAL
Procedure: Action for [^35S]GTPγS Binding Test Via CCR4 (1) Preparation of Human CCR4 Expressing Cell Line A vector (contains a neomycin-resistance gene) in which human CCR4 gene was inserted into downstream of the EF-1α promoter was prepared and transfected into a mouse pre B cell line B300-16 cells by electroporation. These cells were cultured using a G-418-supplemented medium, and a single cell line capable of producing human CCR4 constantly and stably was obtained by the limiting dilution method. (2) Preparation of Human CCR4 Expressing Cell Line Membrane Fraction The human CCR4 expressing cells were recovered, washed with PBS and then suspended in a lysis buffer (10 mM HEPES pH 7.5, 2 mM EDTA, proteinase inhibitor). After allowing the suspension to stand on ice for 15 minutes, the cells were disintegrated using a homogenizer and centrifuged (2000 rpm, 10 min, 4° C.). The supernatant was further subjected to ultracentrifugation (22 K, 30 min, 4° C.), and then the pellet was suspended in PBS and used in the subsequent test. (3) GTPγS Binding Test In a reaction mixture liquid containing 20 mM of HEPES pH 7.05, 100 mM of NaCl, 5 mM of MgCl2, 2 μM of GDP, human MDC, […] of [^35S]GTPγS, 1 mg of wheat germ agglutinin SPA beads and 1 μg of the human CCR4 expressing cell line membrane fraction, respective concentration of the test compound was allowed to undergo the reaction at room temperature for 1 hour and 30 minutes, and the radioactivity was measured.

[2] = tested on: Balb/c mice, oxazolone-induced contact dermatitis; experiment: Mouse oxazolone-induced contact dermatitis (ear swelling); format: in vivo; conditions: 30 mg/kg oral administration, swelling 20 hours after oxazolone application
Procedure: 2. Action Upon Mouse Oxazolone-Induced Contact Dermatitis
Balb/c mice (6 to 10 weeks of age, female, Charles River Japan) were sensitized by applying 150 μl of 3% oxazolone/ethanol solution (Sigma Aldrich Japan) to the abdominal part. On the 6th day after the sensitization, 10 μl of 1% oxazolone/ethanol solution was applied to both sides of the right ear. The test drug was administered in 12 hours after the application of the oxazolone solution (test drug administration group), and the solvent alone used in dissolving the test drug was administered to the control group. Thickness of the right auricle was measured before the application and 20 hours thereafter using a […] (Mitsutoyo), and the swelling (thickness increment=measured value after 20 hours−measured value before application) was calculated. The inhibition ratio was calculated by the following formula, by regarding a group to which the oxazolone solution was applied without sensitization as the normal group. In this connection, the above-mentioned test was carried out by 5 animals per group. Inhibition ratio=(swelling of control group−swelling of test drug administration group)×100/(swelling of control group−swelling of normal group)

Row | Structure (SMILES) | pIC50 [1] | inhibitory activity (inhibition of right auricle swelling) [2]
1 | COc1cc2nc(N3CCC(N(C)C(=O)[C@@H]4CCCN4C)CC3)nc(Nc3ccc(Cl)cc3F)c2cc1OC [Example 1, N-(1-{4-[(4-chloro-2-fluorophenyl)amino]-6,7-dimethoxyquinazolin-2-yl}piperidin-4-yl)-N,1-dimethyl-L-prolinamide dihydrochloride] | ≥ 7.00 | good inhibitory activity
2 | CCN(C(=O)[C@@H]1CCCN1)C1CCN(c2nc(Nc3ccc(Cl)cc3)c3cc(Br)ccc3n2)CC1 [Example 64] | ≥ 7.00 | 
3 | COc1cc2nc(N3CCC(N(C)C(=O)[C@H]4CCCN4C)CC3)nc(Nc3ccc(Cl)cc3F)c2cc1F [Example 66] | ≥ 7.00 | 
4 | CCN(C(=O)[C@@H]1CCCN1)C1CCN(c2nc(Nc3ccc(Cl)cc3F)c3ccc(C#N)cc3n2)CC1 [Example 69] | ≥ 7.00 | 
5 | CN(C(=O)[C@H]1CCCN1C)C1CCN(c2nc(Nc3ccc(Cl)cc3F)c3ccc(C#N)cc3n2)CC1 [Example 70] | ≥ 7.00 | 
6 | COc1cc2nc(N3CCC(N(C)C(=O)[C@H]4CCCN4)CC3)nc(Nc3cc(F)c(F)cc3F)c2cc1F [Example 72] | ≥ 7.00 | 
7 | COc1cc2nc(N3CCC(N(C)C(=O)[C@H]4CCCN4)CC3)nc(Nc3ccc(Cl)cc3)c2cc1F [Example 73] | ≥ 7.00 | 
8 | COc1cc2nc(N3CCC(N(C)C(=O)[C@H]4CCCN4)CC3)nc(Nc3ccc(Cl)cn3)c2cc1F [Example 74] | ≥ 7.00 | 
9 | COc1cc2nc(N3CCC(N(C)C(=O)[C@H]4CCCN4)CC3)nc(Nc3ncc(Cl)cc3Cl)c2cc1F [Example 75] | ≥ 7.00 | 
10 | COc1cc2nc(N3CCC(N(C)C(=O)[C@H]4CCCN4)CC3)nc(Nc3ccc(F)cn3)c2cc1F [Example 76] | ≥ 7.00 | 
11 | COc1cc2nc(N3CCC(N(C)C(=O)[C@H]4CCCN4CCO)CC3)nc(Nc3ccc(Cl)cc3F)c2cc1F [Example 77] | ≥ 7.00 | 
12 | COc1cc2nc(N3CCC(N(C)C(=O)[C@H]4CCCN4)CC3)nc(Nc3c(F)cc(Cl)cc3F)c2cc1F [Example 78] | ≥ 7.00 | 
13 | COc1cc2nc(N3CCC(N(C)C(=O)[C@H]4CCCN4)CC3)nc(NCc3ccc(Cl)cc3F)c2cc1F [Example 79] | ≥ 7.00 | 
14 | COc1cc2nc(N3CCC(N(C)C(=O)[C@H]4CCCN4CC(O)CO)CC3)nc(Nc3ccc(Cl)cc3F)c2cc1F (stereo partly shown) [Example 80] | ≥ 7.00 | 
15 | COc1cc2nc(N3CCC(N(C(=O)[C@H]4CCCCN4)C4CC4)CC3)nc(Nc3ccc(Cl)cc3F)c2cc1OC [Example 90] | ≥ 7.00 | 
16 | COc1cc2nc(N3CCC(N(C(=O)[C@H]4CCCCN4)C4CCC4)CC3)nc(Nc3ccc(Cl)cc3F)c2cc1OC [Example 91] | ≥ 7.00 | 

Now from value to molecule, other results behind:

Row | pIC50 [1] | Structure (SMILES) | inhibitory activity (inhibition of right auricle swelling) [2]
17 | ≥ 7.00 | CCN(C(=O)[C@@H]1CCCN1)C1CCN(c2nc(Nc3ccc(Cl)cc3F)c3cc(F)c(OC)cc3n2)CC1 [Example 63] | 
18 | ≥ 7.00 | CCN(C(=O)[C@H]1CCCN1)C1CCN(c2nc(Nc3ccc(Cl)cc3F)c3cc(F)c(OC)cc3n2)CC1 [Example 65] | 
19 | ≥ 7.00 | CN(C(=O)[C@H]1CCCN1)C1CCN(c2nc(Nc3ccc(Cl)cc3F)c3ccc(C#N)cc3n2)CC1 [Example 68] | 
20 | ≥ 7.00 | COc1cc2nc(N3CCC(N(C)C(=O)[C@@H]4CCCCN4)CC3)nc(Nc3ccc(Cl)cc3F)c2cc1OC [Example 86] | 
21 | ≥ 7.00 | COc1cc2nc(N3CCC(N(C)C(=O)[C@H]4CCCCN4)CC3)nc(Nc3ccc(Cl)cc3F)c2cc1OC [Example 87] | 
22 | ≥ 7.00 | CN(C(=O)[C@H]1CCCN1)C1CCN(c2nc(Nc3ccc(Cl)cc3F)c3cnn(C)c3n2)CC1 [Example 95] | 
23 | ≥ 7.00 | CCn1ncc2c(Nc3ccc(Cl)cc3F)nc(N3CCC(N(C)C(=O)[C@H]4CCCN4)CC3)nc21 [Example 99] | 
24 | ≥ 7.00 | CCn1ncc2c(Nc3ccc(Cl)cc3F)nc(N3CCC(N(C)C(=O)[C@H]4CCCN4C)CC3)nc21 [Example 100] | 
25 | ≥ 7.00 | CN(C(=O)[C@@H]1CCCN1)C1CCN(c2nc(Nc3ccc(Cl)cc3F)c3cnn(CC(F)(F)F)c3n2)CC1 [Example 101] | 
26 | ≥ 7.00 | CN(C(=O)[C@H]1CCCN1)C1CCN(c2nc(Nc3ccc(Cl)cc3F)c3cnn(CC(F)(F)F)c3n2)CC1 [Example 102] | 
27 | ≥ 7.00 | CN(C(=O)[C@@H]1CCCN1C)C1CCN(c2nc(Nc3ccc(Cl)cc3F)c3cnn(CC(F)(F)F)c3n2)CC1 [Example 103] | 
28 | ≥ 7.00 | CN(C(=O)[C@H]1CCCN1C)C1CCN(c2nc(Nc3ccc(Cl)cc3F)c3cnn(CC(F)(F)F)c3n2)CC1 [Example 104] | 
29 | ≥ 7.00 | CCn1ncc2c(NCc3ccc(Cl)cc3F)nc(N3CCC(N(C)C(=O)[C@H]4CCCN4)CC3)nc21 [Example 105] | 
30 | ≥ 7.00 | CN(C(=O)[C@H]1CCCN1)C1CCN(c2nc(NCc3ccc(Cl)cc3F)c3cnn(CC(F)(F)F)c3n2)CC1 [Example 106] | 
